Results on 15 compounds are retold here after patent publication US12539292B2, “BRM targeting compounds and associated methods of use” (Arvinas Operations, Inc., priority 2018, dated 2026).

The assay deals with T1, BRM (Homo sapiens, UniProt P51531).
T1 construct: In-Cell Western Screen of BRM Degradation in SW1573 Cells; endogenous in cells; host or cells: SW1573
Kind of assay: In-cell Western screen of BRM degradation in SW1573 cells (Dmax and DC50). The format is cell-based. Conditions: BRM degradation, SW1573 cells; for DC50: read-out: DC50; for Dmax (%) (% degraded): tested at the top concentration of between 0.3 and 10 μM. Put shortly: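 SW1573 cells were treated with compound overnight (18-20 h; final DMSO 0.1%), then fixed in 4% PFA, permeabilized with Triton X-100 and blocked. BRM was detected by in-cell Western using 800 nm anti-rabbit and 680 nm anti-mouse secondaries, and Dmax and DC50 were derived from the LI-COR Odyssey signal.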

Where [1] appears, read: when tested at the top concentration of between 0.3 and 10 μM, read-out: Dmax (%) (% degraded).

Like-named read-outs stand apart in the source and are kept apart here.

T1 sequence (P51531 whole entry): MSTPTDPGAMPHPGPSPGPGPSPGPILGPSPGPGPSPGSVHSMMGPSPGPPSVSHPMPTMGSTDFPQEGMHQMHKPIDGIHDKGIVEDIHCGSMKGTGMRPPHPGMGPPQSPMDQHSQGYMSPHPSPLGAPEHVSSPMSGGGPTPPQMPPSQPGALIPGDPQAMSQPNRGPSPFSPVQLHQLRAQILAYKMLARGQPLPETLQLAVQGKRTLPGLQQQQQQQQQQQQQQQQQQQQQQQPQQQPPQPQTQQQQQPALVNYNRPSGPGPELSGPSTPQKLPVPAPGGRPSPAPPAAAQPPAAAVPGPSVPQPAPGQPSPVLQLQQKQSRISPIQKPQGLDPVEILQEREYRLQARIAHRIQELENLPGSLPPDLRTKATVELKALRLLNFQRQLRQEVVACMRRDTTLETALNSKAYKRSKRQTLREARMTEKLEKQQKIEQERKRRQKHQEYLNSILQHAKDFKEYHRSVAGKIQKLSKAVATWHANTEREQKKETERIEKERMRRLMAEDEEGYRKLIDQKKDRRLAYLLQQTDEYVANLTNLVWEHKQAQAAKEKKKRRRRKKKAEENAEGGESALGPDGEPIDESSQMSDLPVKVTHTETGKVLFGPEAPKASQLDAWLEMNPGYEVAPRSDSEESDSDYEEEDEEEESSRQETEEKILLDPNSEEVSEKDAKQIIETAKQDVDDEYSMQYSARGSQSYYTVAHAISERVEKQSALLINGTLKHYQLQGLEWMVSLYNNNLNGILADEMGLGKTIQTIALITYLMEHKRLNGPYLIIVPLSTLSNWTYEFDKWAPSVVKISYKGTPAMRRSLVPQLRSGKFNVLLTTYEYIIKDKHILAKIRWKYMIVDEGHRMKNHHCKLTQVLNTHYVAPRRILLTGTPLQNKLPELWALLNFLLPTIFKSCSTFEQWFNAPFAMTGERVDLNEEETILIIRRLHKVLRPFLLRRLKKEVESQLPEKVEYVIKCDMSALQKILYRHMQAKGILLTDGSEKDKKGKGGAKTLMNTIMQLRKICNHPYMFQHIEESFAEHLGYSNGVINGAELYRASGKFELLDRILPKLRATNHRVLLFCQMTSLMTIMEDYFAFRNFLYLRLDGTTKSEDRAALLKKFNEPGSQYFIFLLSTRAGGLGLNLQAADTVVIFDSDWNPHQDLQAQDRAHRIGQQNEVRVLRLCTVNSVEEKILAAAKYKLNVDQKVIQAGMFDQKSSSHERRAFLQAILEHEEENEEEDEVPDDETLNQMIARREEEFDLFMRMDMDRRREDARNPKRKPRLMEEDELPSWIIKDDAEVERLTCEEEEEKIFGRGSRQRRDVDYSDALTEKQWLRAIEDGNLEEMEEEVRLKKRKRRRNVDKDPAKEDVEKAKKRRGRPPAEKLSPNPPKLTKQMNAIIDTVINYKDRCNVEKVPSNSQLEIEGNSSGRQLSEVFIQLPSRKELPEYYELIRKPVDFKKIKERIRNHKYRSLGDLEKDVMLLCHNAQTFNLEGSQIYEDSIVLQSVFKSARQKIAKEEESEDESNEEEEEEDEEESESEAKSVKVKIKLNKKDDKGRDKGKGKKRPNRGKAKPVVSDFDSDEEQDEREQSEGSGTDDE

Consider `CC(C)[C@H](C(=O)N1C[C@H](O)C[C@H]1C(=O)N[C@@H](C)c1ccc(C#N)cc1)c1cc(N2CCC(CN3CCC(O[C@H]4C[C@H](C#C[C@@H](C)n5cc(-c6cc(-c7ccccc7O)nnc6N)cn5)C4)CC3)CC2)no1` (single isomer, unassigned) [compound 697], for which the DC50 is over 30 nM.
As to `CC(C)[C@@H](C(=O)N1C[C@H](O)C[C@H]1C(=O)N[C@@H](C)c1ccc(C#N)cc1)c1cc(N2CCC(CN3CCC(O[C@H]4C[C@H](C#C[C@@H](C)n5cc(-c6cc(-c7ccccc7O)nnc6N)cn5)C4)CC3)CC2)no1` (single isomer, unassigned) [compound 698], the DC50 was under 2.5 nM. Further, where the note is “read-out: Dmax (% degraded)”, the Dmax is over 75%.
`Cc1ncsc1-c1ccc([C@H](C)NC(=O)[C@@H]2C[C@@H](O)CN2C(=O)C(C(C)C)n2cc(OCCN3CCN(CCOc4cc(N5C6CCC5CN(c5cc(-c7ccccc7O)nnc5N)C6)ccn4)CC3)cn2)cc1` (stereo in doubt) [compound 38, (2S,4R)-1-[(2R)-2-[4-[2-(4-[2-[(4-[3-[3-amino-6-(2-hydroxyphenyl)pyridazin-4-yl]-3,8-diazabicyclo[3.2.1]octan-8-yl]pyridin-2-yl)oxy]ethyl]piperazin-1-yl)ethoxy]-1H-pyrazol-1-yl]-3-methylbutanoyl]-4-hydroxy-N-[(1S)-1-[4-(4-methyl-1,3-thiazol-5-yl)phenyl]ethyl]pyrrolidine-2-carboxamide]: the DC50 was 10 to 30 nM. The Dmax under setting [1] is over 75%.
Take `Cc1ncsc1-c1ccc([C@H](C)NC(=O)[C@@H]2C[C@@H](O)CN2C(=O)C(C(C)C)n2cc(OCCN3CCN(CCOc4cc(N5C6CCC5CN(c5cc(-c7ccccc7O)nnc5N)C6)ccn4)CC3)cn2)cc1` (stereo in doubt) [compound 39, (2S,4R)-1-[(2S)-2-[4-[2-(4-[2-[(4-[3-[3-amino-6-(2-hydroxyphenyl)pyridazin-4-yl]-3,8-diazabicyclo[3.2.1]octan-8-yl]pyridin-2-yl)oxy]ethyl]piperazin-1-yl)ethoxy]-1H-pyrazol-1-yl]-3-methylbutanoyl]-4-hydroxy-N-[(1S)-1-[4-(4-methyl-1,3-thiazol-5-yl)phenyl]ethyl]pyrrolidine-2-carboxamide]: the DC50 was over 30 nM. The Dmax under setting [1] is over 75%.
Regarding `Cc1ncsc1-c1ccc([C@H](C)NC(=O)[C@@H]2C[C@@H](O)CN2C(=O)C(c2cc(OCCn3cc(C(C)n4cc(-c5cc(-c6ccccc6O)nnc5N)cn4)ccc3=O)no2)C(C)C)cc1` (stereo in doubt) [compound 162, (2S,4R)-1-((2R)-2-(3-(2-(5-(1-(4-(3-amino-6-(2-hydroxyphenyl)pyridazin-4-yl)-1H-pyrazol-1-yl)ethyl)-2-oxopyridin-1(2H)-yl)ethoxy)isoxazol-5-yl)-3-methylbutanoyl)-4-hydroxy-N-((S)-1-(4-(4-methylthiazol-5-yl)phenyl)ethyl)pyrrolidine-2-carboxamide], the DC50 is over 30 nM and the “Dmax (%) (% degraded)” value is reported as “A (A > 75)”.
With `Cc1cnn(C)c1-c1ccc([C@H](C)NC(=O)[C@@H]2C[C@@H](O)CN2C(=O)C(c2cc(OCCN3CCN(CCOc4cc(N5C6CCC5CN(c5cc(-c7ccccc7O)nnc5N)C6)ccn4)CC3)no2)C(C)C)cc1` (stereo in doubt) [compound 194, (2S,4R)-1-((2R)-2-(3-(2-(4-(2-((4-(3-(3-amino-6-(2-hydroxyphenyl)pyridazin-4-yl)-3,8-diazabicyclo[3.2.1]octan-8-yl)pyridin-2-yl)oxy)ethyl)piperazin-1-yl)ethoxy)isoxazol-5-yl)-3-methylbutanoyl)-N-((S)-1-(4-(1,4-dimethyl-1H-pyrazol-5-yl)phenyl)ethyl)-4-hydroxypyrrolidine-2-carboxamide], the half-maximal degradation concentration (DC50) is under 2.5 nM and the “Dmax (%) (% degraded)” value is given as “A (A > 75)”.
Consider `Cc1ncsc1-c1ccc(CNC(=O)[C@@H]2C[C@@H](O)CN2C(=O)[C@@H](NC(=O)COCCOCCOCCn2cc(-c3cc(-c4ccccc4O)nnc3N)cn2)C(C)(C)C)cc1` [compound 1, (2S,4R)-1-((S)-14-(4-(3-amino-6-(2-hydroxyphenyl)pyridazin-4-yl)-1H-pyrazol-1-yl)-2-(tert-butyl)-4-oxo-6,9,12-trioxa-3-azatetradecanoyl)-4-hydroxy-N-(4-(4-methylthiazol-5-yl)benzyl)pyrrolidine-2-carboxamide], for which the DC50 is over 30 nM. Further, the Dmax under setting [1] was over 75%.
For `Cc1ncsc1-c1ccc(CNC(=O)[C@@H]2C[C@@H](O)CN2C(=O)[C@@H](NC(=O)COCCOCCOCCOCCOCCOCCn2cc(-c3cc(-c4ccccc4O)nnc3N)cn2)C(C)(C)C)cc1` [compound 3, (2S,4R)-1-((S)-23-(4-(3-amino-6-(2-hydroxyphenyl)pyridazin-4-yl)-1H-pyrazol-1-yl)-2-(tert-butyl)-4-oxo-6,9,12,15,18,21-hexaoxa-3-azatricosanoyl)-4-hydroxy-N-(4-(4-methylthiazol-5-yl)benzyl)pyrrolidine-2-carboxamide], the half-maximal degradation concentration (DC50) was over 30 nM. Further, under setting [1], the Dmax was over 75%.
Turning to `Cc1ncsc1-c1ccc(CNC(=O)[C@@H]2C[C@@H](O)CN2C(=O)[C@@H](NC(=O)COCCOCCOCCOCCOCCn2cc(-c3cc(-c4ccccc4O)nnc3N)cn2)C(C)(C)C)cc1` [compound 4, (2S,4R)-1-((S)-20-(4-(3-amino-6-(2-hydroxyphenyl)pyridazin-4-yl)-1H-pyrazol-1-yl)-2-(tert-butyl)-4-oxo-6,9,12,15,18-pentaoxa-3-azaicosanoyl)-4-hydroxy-N-(4-(4-methylthiazol-5-yl)benzyl)pyrrolidine-2-carboxamide], the DC50 was over 30 nM. Also, the Dmax under setting [1] was over 75%.
For `Cc1ncsc1-c1ccc(CNC(=O)[C@@H]2C[C@@H](O)CN2C(=O)[C@@H](NC(=O)COCCOCCOCCOCCOCCOCCOCCn2cc(-c3cc(-c4ccccc4O)nnc3N)cn2)C(C)(C)C)cc1` [compound 5, (2S,4R)-1-((S)-26-(4-(3-amino-6-(2-hydroxyphenyl)pyridazin-4-yl)-1H-pyrazol-1-yl)-2-(tert-butyl)-4-oxo-6,9,12,15,18,21,24-heptaoxa-3-azahexacosanoyl)-4-hydroxy-N-(4-(4-methylthiazol-5-yl)benzyl)pyrrolidine-2-carboxamide], the DC50 was over 30 nM. Also, the Dmax under setting [1] is over 75%.
Taken in the same sequence, the figures for `Cc1ncsc1-c1ccc(CNC(=O)[C@@H]2C[C@@H](O)CN2C(=O)[C@@H](NC(=O)COCCOCCOCCOc2cc(N3C4CCC3CN(c3cc(-c5ccccc5O)nnc3N)C4)ccn2)C(C)(C)C)cc1` [compound 6, (2S,4R)-1-((2S)-14-((4-(3-(3-amino-6-(2-hydroxyphenyl)pyridazin-4-yl)-3,8-diazabicyclo[2.1]octan-8-yl)pyridin-2-yl)oxy)-2-(tert-butyl)-4-oxo-6,9,12-trioxa-3-azatetradecanoyl)-4-hydroxy-N-(4-(4-methylthiazol-5-yl)benzyl)pyrrolidine-2-carboxamide] were 10 to 30 nM and over 75%.
For the compound `Cc1ncsc1-c1ccc(CNC(=O)[C@@H]2C[C@@H](O)CN2C(=O)[C@@H](NC(=O)COCCOCCOCCOCCOc2cc(N3C4CCC3CN(c3cc(-c5ccccc5O)nnc3N)C4)ccn2)C(C)(C)C)cc1` [compound 7, (2S,4R)-1-((2S)-17-((4-(3-(3-amino-6-(2-hydroxyphenyl)pyridazin-4-yl)-3,8-diazabicyclo[3.2.1]octan-8-yl)pyridin-2-yl)oxy)-2-(tert-butyl)-4-oxo-6,9,12,15-tetraoxa-3-azaheptadecanoyl)-4-hydroxy-N-(4-(4-methylthiazol-5-yl)benzyl)pyrrolidine-2-carboxamide], the DC50 lay in the range of 2.5 to 10 nM. Besides, under setting [1], the Dmax is over 75%.
Consider `Cc1ncsc1-c1ccc(CNC(=O)[C@@H]2C[C@@H](O)CN2C(=O)[C@@H](NC(=O)COCCOCCOCCOCCOCCOCCOc2cc(N3C4CCC3CN(c3cc(-c5ccccc5O)nnc3N)C4)ccn2)C(C)(C)C)cc1` [compound 8, (2S,4R)-1-((2S)-23-((4-(3-(3-amino-6-(2-hydroxyphenyl)pyridazin-4-yl)-3,8-diazabicyclo[3.2.1]octan-8-yl)pyridin-2-yl)oxy)-2-(tert-butyl)-4-oxo-6,9,12,15,18,21-hexaoxa-3-azatricosanoyl)-4-hydroxy-N-(4-(4-methylthiazol-5-yl)benzyl)pyrrolidine-2-carboxamide], for which the DC50 was in the range of 10 to 30 nM. Also, under setting [1], the Dmax was over 75%.
In the case of `Cc1ncsc1-c1ccc(CNC(=O)[C@@H]2C[C@@H](O)CN2C(=O)[C@@H](NC(=O)COCCOCCOCCOCCOCCOc2cc(N3[C@@H]4CC[C@H]3CN(c3cc(-c5ccccc5O)nnc3N)C4)ccn2)C(C)(C)C)cc1` [compound 9, (2S,4R)-1-((S)-20-((4-((1R,5S)-3-(3-amino-6-(2-hydroxyphenyl)pyridazin-4-yl)-3,8-diazabicyclo[3.2.1]octan-8-yl)pyridin-2-yl)oxy)-2-(tert-butyl)-4-oxo-6,9,12,15,18-pentaoxa-3-azaicosanoyl)-4-hydroxy-N-(4-(4-methylthiazol-5-yl)benzyl)pyrrolidine-2-carboxamide], the DC50 fell in the range of 2.5 to 10 nM. Also, the Dmax under setting [1] was over 75%.
Regarding `Cc1ncsc1-c1ccc(CNC(=O)[C@@H]2C[C@@H](O)CN2C(=O)[C@@H](NC(=O)COCCOCCOCCOCCOCCOCCOCCOc2cc(N3C4CCC3CN(c3cc(-c5ccccc5O)nnc3N)C4)ccn2)C(C)(C)C)cc1` [compound 10, (2S,4R)-1-((2S)-26-((4-(3-(3-amino-6-(2-hydroxyphenyl)pyridazin-4-yl)-3,8-diazabicyclo[3.2.1]octan-8-yl)pyridin-2-yl)oxy)-2-(tert-butyl)-4-oxo-6,9,12,15,18,21,24-heptaoxa-3-azahexacosanoyl)-4-hydroxy-N-(4-(4-methylthiazol-5-yl)benzyl)pyrrolidine-2-carboxamide], the DC50 is 2.5 to 10 nM. The Dmax under setting [1] was over 75%.

In general, DC50 refers to the concentration giving 50% degradation. As usually defined, the Dmax is the largest share of the target that was removed.
